Results: patent publication US20150219543A1, “CELL EVALUATION METHOD” (HAMAMATSU PHOTONICS K.K., priority 2014, published 2015)

Test system: human living fibroblast-derived 253G1 iPS cell strain
Experiment: Physical cell length (cell thickness) by reflecting quantitative phase microscope
Type: cell-based
Conditions: 253G1 iPS cells on feeder, medium with 12.5 μM retinoic acid from 2nd day after seeding, further cultured 4 days (differentiated cell)
Method: On a 35 mm-diameter glass bottom dish with antireflection coating, a human living fibroblast-derived 253G1 iPS cell strain was seeded at 10-20 colonies/dish, and cultured on a feeder using a medium containing a final concentration of 4 ng/mL of human basic fibroblast growth factor (Primate ES Medium, ReproCELL Incorporated, Trade name: RCHEMD001). The size of one colony was approximately 200 μm. For the feeder cell, a mouse lung fibroblast cell was used. The cell was cultured until the 3rd day after the seeding. The medium was exchanged once a day.
The sample for differentiation of the iPS cell was transferred to a medium containing a final concentration of 4 ng/mL of human basic fibroblast growth factor and 12.5 μM of retinoic acid (Primate ES Medium) on the 2nd day after the seeding, and further cultured for 4 days. Generally, retinoic acid is used as a reagent for inducing differentiation. […]
For the cells in a 60 μm×80 μm visual field, three-dimensional data was obtained at intervals of 0.125 μm in horizontal direction and 0.32 μm in vertical direction using a reflecting quantitative phase microscope, and a tomographic image was produced from the obtained data. […] From the obtained bottom and surface shapes, a cell thickness (physical length) was measured to calculate a mean value.

CC1=C(/C=C/C(C)=C/C=C/C(C)=C/C(=O)O)C(C)(C)CCC1 [retinoic acid] was tested, and the “Mean value of the physical cell length” value was 6.25 μm.
